Test results from paper PMC4285139, “Target discovery of acivicin in cancer cells elucidates its mechanism of growth inhibition” (Chemical Science, 2014).
One block for each compound: values may come before it.

How the values were obtained:
[1] = biological target: T1, ALDH4A1 (Homo sapiens, UniProt P30038); test: pre-incubation of native enzyme blocks probe labelling (competitive ABPP); assay type: cell-based
T1 sequence (P30038 25-563): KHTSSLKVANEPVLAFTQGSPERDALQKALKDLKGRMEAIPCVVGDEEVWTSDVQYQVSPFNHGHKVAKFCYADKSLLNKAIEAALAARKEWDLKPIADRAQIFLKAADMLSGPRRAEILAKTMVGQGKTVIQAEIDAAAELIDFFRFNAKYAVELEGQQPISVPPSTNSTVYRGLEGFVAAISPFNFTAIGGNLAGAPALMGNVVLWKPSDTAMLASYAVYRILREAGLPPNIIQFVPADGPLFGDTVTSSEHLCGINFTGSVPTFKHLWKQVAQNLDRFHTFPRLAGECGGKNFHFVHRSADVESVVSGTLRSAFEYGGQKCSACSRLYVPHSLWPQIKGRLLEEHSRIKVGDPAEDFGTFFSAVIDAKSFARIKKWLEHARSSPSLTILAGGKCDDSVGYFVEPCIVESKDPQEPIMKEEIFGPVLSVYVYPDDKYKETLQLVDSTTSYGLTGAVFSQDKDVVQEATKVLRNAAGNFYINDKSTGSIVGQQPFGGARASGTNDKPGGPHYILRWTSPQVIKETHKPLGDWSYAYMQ

[2] = biological target: T2, ALDH1A1 (Homo sapiens, UniProt P00352); test: enzyme inhibition assay with purified recombinant enzyme ([…] min pre-incubation); assay type: biochemical
T2 sequence (P00352 2-501): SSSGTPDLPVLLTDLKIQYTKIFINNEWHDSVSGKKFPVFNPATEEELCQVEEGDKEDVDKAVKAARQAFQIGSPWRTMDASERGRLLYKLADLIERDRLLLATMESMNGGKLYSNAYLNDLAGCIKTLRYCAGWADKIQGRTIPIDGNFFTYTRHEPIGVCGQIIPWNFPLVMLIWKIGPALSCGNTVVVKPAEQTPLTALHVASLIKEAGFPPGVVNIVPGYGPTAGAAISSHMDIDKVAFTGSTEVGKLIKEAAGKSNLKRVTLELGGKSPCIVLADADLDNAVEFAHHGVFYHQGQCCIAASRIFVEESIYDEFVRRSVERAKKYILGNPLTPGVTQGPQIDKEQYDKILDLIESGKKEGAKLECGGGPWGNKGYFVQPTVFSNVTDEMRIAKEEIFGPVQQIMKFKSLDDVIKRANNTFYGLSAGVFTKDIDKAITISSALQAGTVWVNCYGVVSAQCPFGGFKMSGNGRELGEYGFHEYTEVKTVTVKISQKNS

[3] = biological target: T1, ALDH4A1; test: enzyme inhibition assay with purified recombinant enzyme ([…] min pre-incubation); also ABPP labelling, lost in the Cys348Ala mutant; assay type: biochemical
[4] = biological target: T1, ALDH4A1; test: enzyme inhibition assay with purified recombinant enzyme ([…] min pre-incubation); also competitive ABPP labelling in HepG2 lysate and cells; assay type: biochemical

Structure (SMILES): CCN(CC)C(=S)SSC(=S)N(CC)CC [disulfiram]
pre-incubation of native enzyme blocks probe labelling (competitive ABPP) [1]: pre-incubation of the native enzyme with the ALDH inhibitor disulfiram resulted in a lack of labeling

Structure (SMILES): C#CCNC(=O)[C@@H](N)[C@@H]1CC(Cl)=NO1 [ACV2]
IC50 [2]: 55 µM

Structure (SMILES): N[C@H](C(=O)O)[C@@H]1CC(Cl)=NO1 [ACV, Acivicin]
IC50 [4]: 5.4 µM

The next lines start with the values.

IC50 [2]: 0.3 µM
Structure (SMILES): C#CCCCC(=O)OC[C@H]1CC(Br)=NO1 [ACVL1]

IC50 [3]: 700 nM
Structure (SMILES): C#CCCCC(=O)N[C@H](C(=O)O)[C@@H]1CC(Cl)=NO1 [ACV1]
